The values below come from patent US6982285B2, “Control of parasites attached to skin of fish” (Novartis Animal Health US, Inc., priority 1999, dated 2006).

Some results are limits rather than exact numbers.

The subject of experiment [1] is salmon louse. The experiment is described as follows: In vivo preliminary test for activity against the salmon louse following manual injection. Also noted: species or system salmon louse on Atlantic salmon. The note with it: naturally infected Atlantic salmon; single dose 40 mg fluazuron/kg body weight injected by hand into muscle tissue below dorsal fin; inspected 24, 48 and 72 hours later; at latest after 72 hours. On the procedure: 1. In Vivo Preliminary Test for Activity Against the Salmon Louse Following Manual […]
20 naturally infected Atlantic salmon of various sizes from a fish farm are transferred to a well-aerated seawater aquarium for acclimatisation. They are left there for 3 days and fed daily with the usual food. On the fourth day, they are caught individually with a fish basket and quickly weighed. Each fish is injected by hand using an injection needle with a single dose, according to formulation example 1, of 40 mg fluazuron/kg body weight into the muscle tissue below the dorsal fin. The treated fish are returned to their aquarium.

In experiment [2] the test system is salmon louse. As to the kind of experiment: Semi-automated in vivo test for activity against the salmon louse (needleless inoculation gun). Also noted: species or system salmon louse on Atlantic salmon. Conditions: Atlantic salmon artificially infected with 5 pre-adult, 5 adult female and 5 adult male salmon lice; 45 mg fluazuron/kg body weight, needleless inoculation gun below dorsal fin; after 24 hours. From the text: 2. Semi-Automated In Vivo Test for Activity Against the Salmon Louse.
Two well-aerated seawater aquariums, each of 5000 liter content, are set up parallel to one another at a distance of 2 m, with one being 10 cm higher than the other. The upper aquarium is provided with a kind of overflow which opens into a plexiglass channel which is open at the top and has a square inner cross-section of 10 cm. The upper end of this channel is secured by a movable grid and rests on the edge of the lower aquarium. Between the two aquariums, there is slight gradient. In the middle of the channel, two wire grids are attached with a 30 cm gap across the current, in such a way that they are either used as a water-permeable barrier or can be opened upwards on a hinge by a lever. At the bottom of the upper aquarium, there is an electrically controlled tail lift. When this is raised, the volume of water above it is diminished by reducing the depth of water. In addition, the upper aquarium contains a water feed which is secured by a grid and the lower aquarium has outlet holes. Water flows constantly from the upper to the lower aquarium. 200 Atlantic salmon of the same age are introduced into the upper aquarium and are each artificially infected with 5 pre-adult, 5 adult female and 5 adult male salmon lice. […]

The test system of another experiment is sea lice. The note with it: in salt water (printed for trichlorfon); cited from earlier work.

On to `O=C(NC(=O)c1c(F)cccc1F)Nc1ccc(Cl)c(Oc2ncc(C(F)(F)F)cc2Cl)c1` [fluazuron, 1-[4-chloro-3-(3-chloro-5-trifluoromethyl-2-pyridyloxy)phenyl]-3-(2,6-difluorobenzoyl)urea], for which the “parasite infestation / number of surviving parasites” value was “all the adult and pre-adult stages have been killed” in the experiment on salmon louse [1]; “all the female and male adults and pre-adult stages have been killed” in the experiment on salmon louse [2].

For `COP(=O)(OC)OC=C(Cl)Cl` [dichlorvos, 2,2-dichloroethenyl-dimethylphosphate], the “concentration required / effective against sea lice” value in the experiment with sea lice is given as no less than 1 ppm.

Consider `COP(=O)(OC)C(O)C(Cl)(Cl)Cl` (stereo not shown) [trichlorfon, dimethyl-2,2,2-trichloro-1-hydroxyethyl-phosphonate], for which the “concentration required / effective against sea lice” value in the experiment with sea lice is on record as 300 ppm.
